Key:
Format in all cases: in vivo
Scirpus juncoides = test: Test Example 1: herbicidal activity, application before weed generation in submerged conditions (symbol B); details: application herbicide amount 320 g/ha
Outline: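 Mixed weed seeds sown in alluvial soil under 4 cm of water, with rice seedlings at the 2.5-leaf stage added. Same-day treatment: emulsion diluted to a set herbicide amount onto the water. Three weeks at 25–30 °C, then graded on a six-step scale.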

Setaria viridis [1] = test: Test Example 4: herbicidal effect by soil treatment (symbol G); details: application herbicide amount 320 g/ha
Outline: (§1)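 Seeds were sown in sterilized diluvial soil, covered with about 1.5 cm of soil, and the soil surface was sprayed with a water-diluted emulsion of the compound at a predetermined rate. Plants grew in a greenhouse at 25° C. to 30° C.; effects were scored visually 3 weeks after application.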

Avena fatua = test: Test Example 4: herbicidal effect by soil treatment (symbol I); details: application herbicide amount 320 g/ha
Outline: as §1

Alopecurus myosuroides [2] = test: Test Example 4: herbicidal effect by soil treatment (symbol J); details: application herbicide amount 320 g/ha
Outline: as §1

Lolium multiflorum Lam. = test: Test Example 4: herbicidal effect by soil treatment (symbol K); details: application herbicide amount 320 g/ha
Outline: as §1

Abutilon theophrasti = test: Test Example 4: herbicidal effect by soil treatment (symbol M); details: application herbicide amount 320 g/ha
Outline: as §1

Amaranthus retroflexus [3] = test: Test Example 4: herbicidal effect by soil treatment (symbol N); details: application herbicide amount 320 g/ha
Outline: as §1

Stellaria media = test: Test Example 4: herbicidal effect by soil treatment (symbol P); details: application herbicide amount 320 g/ha
Outline: as §1

Galium spurium [4] = test: Test Example 4: herbicidal effect by soil treatment (symbol Q); details: application herbicide amount 320 g/ha
Outline: as §1

corn = test: Test Example 4: effect on crop by soil treatment (symbol c); details: application herbicide amount 320 g/ha
Outline: (§2)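 Crop seed is sown in spots together with several weed species in a box of sterilized diluvial soil. It is covered by about 1.5 cm of soil and kept in a greenhouse held between 25° C. and 30° C.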

soybean [5] = test: Test Example 4: effect on crop by soil treatment (symbol d); details: application herbicide amount 320 g/ha
Outline: as §2

rice = test: Test Example 4: effect on crop by soil treatment (symbol b); details: application herbicide amount 320 g/ha
Outline: as §2

wheat [6] = test: Test Example 4: effect on crop by soil treatment (symbol e); details: application herbicide amount 320 g/ha
Outline: as §2

Digitaria ciliaris = test: Test Example 5: herbicidal effect by foliage application, plastic box (symbol F); details: 320 g/ha, 3 weeks after application
Outline: (§3)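 Emulsion formulation, diluted with water to the intended rate, was applied uniformly to leaves by small sprayer. Recipients were 14-day greenhouse-grown seedlings (25° C. to 30° C.). Assessment followed at 3 weeks.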

Setaria viridis [7] = test: Test Example 5: herbicidal effect by foliage application, plastic box (symbol G); details: 320 g/ha, 3 weeks after application
Outline: as §3

[8] = tested on: Echinochloa crus-galli var. crus-galli; test: Test Example 5: herbicidal effect by foliage application, plastic box (symbol H); details: 320 g/ha, 3 weeks after application
Outline: as §3

Alopecurus myosuroides [9] = test: Test Example 5: herbicidal effect by foliage application, plastic box (symbol J); details: 320 g/ha, 3 weeks after application
Outline: as §3

Amaranthus retroflexus [10] = test: Test Example 5: herbicidal effect by foliage application, plastic box (symbol N); details: 320 g/ha, 3 weeks after application
Outline: as §3

Galium spurium [11] = test: Test Example 5: herbicidal effect by foliage application, plastic box (symbol Q); details: 320 g/ha, 3 weeks after application
Outline: as §3

soybean [12] = test: Test Example 5: effect on crop by foliage application, plastic box (symbol d); details: 320 g/ha, 3 weeks after application
Outline: (§4)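 Foliage-application test plants come from spot sowing in sterilized diluvial soil under a soil layer of about 1.5 cm, grown at 25° C. to 30° C. in a greenhouse.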

rice plant = test: Test Example 5: effect on crop by foliage application, plastic box (symbol b); details: 320 g/ha, 3 weeks after application
Outline: as §4

wheat [13] = test: Test Example 5: effect on crop by foliage application, plastic box (symbol e); details: 320 g/ha, 3 weeks after application
Outline: as §4

SMILES	Herbicidal effect grade, B: Scirpus juncoides (Scirpus juncoides)	G: Setaria viridis, herbicidal effect grade (Setaria viridis [1])	I: Avena fatua, herbicidal effect grade (Avena fatua)	J: Alopecurus myosuroides, herbicidal effect grade (Alopecurus myosuroides [2])	K: Lolium multiflorum Lam., herbicidal effect grade (Lolium multiflorum Lam.)	M: Abutilon theophrasti, herbicidal effect grade (Abutilon theophrasti)	N: Amaranthus retroflexus, herbicidal effect grade (Amaranthus retroflexus [3])	P: Stellaria media, herbicidal effect grade (Stellaria media)	Q: Galium spurium, herbicidal effect grade (Galium spurium [4])	c: corn, effect on crop grade (corn)	d: soybean, effect on crop grade (soybean [5])	F: Digitaria ciliaris, herbicidal effect (criteria of Test Example 1) (Digitaria ciliaris)	G: Setaria viridis, herbicidal effect (criteria of Test Example 1) (Setaria viridis [7])	H: Echinochloa crus-galli var. crus-galli, herbicidal effect (criteria of Test Example 1) [8]	J: Alopecurus myosuroides, herbicidal effect (criteria of Test Example 1) (Alopecurus myosuroides [9])	N: Amaranthus retroflexus, herbicidal effect (criteria of Test Example 1) (Amaranthus retroflexus [10])	Q: Galium spurium, herbicidal effect (criteria of Test Example 1) (Galium spurium [11])	d: soybean, effect on crop (criteria of Test Example 1) (soybean [12])	b: directly sowed rice plant, effect on crop (criteria of Test Example 1) (rice plant)	e: wheat, effect on crop (criteria of Test Example 1) (wheat [13])	also measured
CON=C(C)CC1CC(OC(=O)CCCC(C)=O)=C(c2c(C)cc(-c3ccc(Cl)cc3)cc2C)C1=O (stereo not drawn) [6-080]	1 (Herbicidal ratio of 5% or higher and lower than 20%)	5 (Herbicidal ratio of 90% or more (almost completely withered))	0 (Herbicidal ratio of 5% or lower (almost no effect))	5 (Herbicidal ratio of 90% or more (almost completely withered))	5 (Herbicidal ratio of 90% or more (almost completely withered))	0 (Herbicidal ratio of 5% or lower (almost no effect))	1 (Herbicidal ratio of 5% or higher and lower than 20%)	0 (Herbicidal ratio of 5% or lower (almost no effect))	0 (Herbicidal ratio of 5% or lower (almost no effect))	0 (Herbicidal ratio of 5% or lower (almost no effect))	0 (Herbicidal ratio of 5% or lower (almost no effect))	5 (Herbicidal ratio of 90% or more (almost completely withered))	5 (Herbicidal ratio of 90% or more (almost completely withered))	5 (Herbicidal ratio of 90% or more (almost completely withered))	5 (Herbicidal ratio of 90% or more (almost completely withered))	0 (Herbicidal ratio of 5% or lower (almost no effect))	4 (Herbicidal ratio of 70% or higher and lower than 90%)	1 (Herbicidal ratio of 5% or higher and lower than 20%)	5 (Herbicidal ratio of 90% or more (almost completely withered))	5 (Herbicidal ratio of 90% or more (almost completely withered))	b: directly sowed rice plant, effect on crop grade (rice): 0 (Herbicidal ratio of 5% or lower (almost no effect)); e: wheat, effect on crop grade (wheat [6]): 0 (Herbicidal ratio of 5% or lower (almost no effect))
CON=C(C)CC1CC(O)=C(c2c(C)cc(-c3ccc(Cl)cc3F)cc2C)C1=O (stereo not drawn) [6-084]	3 (Herbicidal ratio of 40% or higher and lower than 70%)	5 (Herbicidal ratio of 90% or more (almost completely withered))	5 (Herbicidal ratio of 90% or more (almost completely withered))	5 (Herbicidal ratio of 90% or more (almost completely withered))	5 (Herbicidal ratio of 90% or more (almost completely withered))	0 (Herbicidal ratio of 5% or lower (almost no effect))	4 (Herbicidal ratio of 70% or higher and lower than 90%)	3 (Herbicidal ratio of 40% or higher and lower than 70%)	3 (Herbicidal ratio of 40% or higher and lower than 70%)	0 (Herbicidal ratio of 5% or lower (almost no effect))	5 (Herbicidal ratio of 90% or more (almost completely withered))	5 (Herbicidal ratio of 90% or more (almost completely withered))	5 (Herbicidal ratio of 90% or more (almost completely withered))	5 (Herbicidal ratio of 90% or more (almost completely withered))	5 (Herbicidal ratio of 90% or more (almost completely withered))	3 (Herbicidal ratio of 40% or higher and lower than 70%)	3 (Herbicidal ratio of 40% or higher and lower than 70%)	5 (Herbicidal ratio of 90% or more (almost completely withered))	5 (Herbicidal ratio of 90% or more (almost completely withered))	4 (Herbicidal ratio of 70% or higher and lower than 90%)	b: directly sowed rice plant, effect on crop grade (rice): 2 (Herbicidal ratio of 20% or higher and lower than 40%); e: wheat, effect on crop grade (wheat [6]): 2 (Herbicidal ratio of 20% or higher and lower than 40%)
CON=C(C)CC1CC(O)=C(c2c(C)cc(-c3ccc(F)c(Cl)c3)cc2C)C1=O (stereo not drawn) [6-085]	3 (Herbicidal ratio of 40% or higher and lower than 70%)	–	–	–	–	–	–	–	–	–	–	5 (Herbicidal ratio of 90% or more (almost completely withered))	5 (Herbicidal ratio of 90% or more (almost completely withered))	5 (Herbicidal ratio of 90% or more (almost completely withered))	5 (Herbicidal ratio of 90% or more (almost completely withered))	3 (Herbicidal ratio of 40% or higher and lower than 70%)	4 (Herbicidal ratio of 70% or higher and lower than 90%)	5 (Herbicidal ratio of 90% or more (almost completely withered))	5 (Herbicidal ratio of 90% or more (almost completely withered))	5 (Herbicidal ratio of 90% or more (almost completely withered))	Herbicidal effect grade, G: Setaria viridis (Setaria viridis [1]): 5 (Herbicidal ratio of 90% or more (almost completely withered)); Herbicidal effect grade, I: Avena fatua (Avena fatua): 5 (Herbicidal ratio of 90% or more (almost completely withered)); Herbicidal effect grade, J: Alopecurus myosuroides (Alopecurus myosuroides [2]): 5 (Herbicidal ratio of 90% or more (almost completely withered)); Herbicidal effect grade, K: Lolium multiflorum Lam. (Lolium multiflorum Lam.): 5 (Herbicidal ratio of 90% or more (almost completely withered)); Herbicidal effect grade, M: Abutilon theophrasti (Abutilon theophrasti): 4 (Herbicidal ratio of 70% or higher and lower than 90%); Herbicidal effect grade, N: Amaranthus retroflexus (Amaranthus retroflexus [3]): 5 (Herbicidal ratio of 90% or more (almost completely withered)); Herbicidal effect grade, P: Stellaria media (Stellaria media): 5 (Herbicidal ratio of 90% or more (almost completely withered)); Herbicidal effect grade, Q: Galium spurium (Galium spurium [4]): 4 (Herbicidal ratio of 70% or higher and lower than 90%); Effect on crop grade, c: corn (corn): 1 (Herbicidal ratio of 5% or higher and lower than 20%); Effect on crop grade, d: soybean (soybean [5]): 5 (Herbicidal ratio of 90% or more (almost completely withered)); Effect on crop grade, b: directly sowed rice plant (rice): 1 (Herbicidal ratio of 5% or higher and lower than 20%); Effect on crop grade, e: wheat (wheat [6]): 3 (Herbicidal ratio of 40% or higher and lower than 70%)

Source: patent publication US11000033B2, “Ketone or oxime compound, and herbicide” (NISSAN CHEMICAL CORPORATION, priority 2014, dated 2021)
